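Each compound was tested at five concentrations against cells in 96-well plates for 48 hours. At the TGI there is no net growth.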

Test in all cases: NCI-60 cell line screen, 48 h
Assay [1] relates to HOP-92 NSCLC.
In assay [2] the test system is NCI/ADR-RES ovarian.
The subject of assay [3] is UACC-257 melanoma.
In assay [4] the test system is HT29 colon.
Assay [5] deals with HCT-15 colon.
In assay [6] the test system is SK-MEL-28 melanoma.
Assay [7] concerns ACHN renal.
Assay [8] has as its system MDA-N.
In assay [9] the test system is TK-10 renal.
The test system of assay [10] is SK-MEL-5 melanoma.

For the molecule `COc1cccc(NC(=O)CC(=O)NN)c1`, the TGI in [1], in assay [2], in assay [3], in assay [4], in assay [5] and in assay [6] was over 100 µM each time. The TGI in assay [7], in assay [8], in assay [9] and in assay [10] was over 100 µM throughout.

Take `CCOC(=O)C1=C(O)CC(=O)N=C1N1CCCC1`: the TGI in assay [1], in [2], in assay [3], in [4], in assay [5] and in assay [6] was over 100 µM throughout. Also, the TGI in [7], in assay [8], in [9] and in [10] was over 100 µM each time.

`CCN(CC)c1c(C(C)(C)C)c(=O)n2ccsc2c1OC(C)=O`: the TGI in assay [1] worked out at 31.2 µM; in assay [2] it was 28.4 µM; in assay [3], 30.7 µM; in assay [4], 28.4 µM; in assay [5] it was 30.7 µM; in [6], 30.8 µM. Besides, the TGI in assay [7] turned out to be 29.7 µM; in assay [8], 34.6 µM; in assay [9], 34.7 µM; in assay [10], 32.2 µM.

`Cc1nn2c(=O)c([N+](=O)[O-])c(/C=C/c3ccc(F)cc3)nc2s1`: the TGI in assay [1] was 26.3 µM; in assay [2] it was 25.1 µM; in [3], 22.3 µM; in assay [4], 16.5 µM; in assay [5] it was 16.5 µM; in [6], 19.7 µM. Besides, the TGI in [7] worked out at 20.6 µM; in assay [8], 15.8 µM; in assay [9], 20.7 µM; in [10], 15.8 µM.

`c1ccc(C(Oc2noc3ccccc23)c2ccccc2)cc1`: the TGI in [1] is over 100 µM; in [2], over 100 µM; in assay [3] it was 99.6 µM; in [4], over 100 µM; in assay [5] it was over 100 µM; in [6], over 100 µM. For the same molecule, the TGI in assay [7] is over 100 µM; in assay [8], 67.2 µM; in [9] it was over 100 µM; in assay [10], 39.6 µM.

Consider `CCOC(=O)[C@@]12C[C@](/C=C/OC)(O[Si](C)(C)C)[C@@]13c1cc(OC)c(OC)cc1CCN3C(=O)C2=O`, for which the TGI in assay [1], in assay [2], in [3], in [4], in assay [5] and in assay [6] was over 100 µM in each case. Besides, the TGI in assay [7], in assay [8], in assay [9] and in assay [10] was over 100 µM throughout.

Regarding `CCCOC(=O)c1cc(O)c(O)c(O)c1`, the TGI in assay [1], in assay [2], in assay [3], in assay [4], in assay [5] and in assay [6] was over 100 µM each time. Besides, the TGI in assay [7] is over 100 µM; in [8] it was 76.9 µM; in assay [9] it was over 100 µM; in assay [10], over 100 µM.

Regarding `CC1(C)N=C(C(N)=O)c2[nH]cnc2N1`, the TGI in [1], in [2], in assay [3], in [4], in assay [5] and in [6] was over 100 µM throughout. Also, the TGI in [7], in assay [8], in assay [9] and in assay [10] was over 100 µM throughout.

As for `Cc1nc2ccc(NCCN(C)C)c3c(=O)c4ccccc4n1c23`, the TGI in assay [1] was found to be 14.2 µM; in assay [2] it was 6.83 µM; in assay [3], 17.6 µM; in [4], 10.8 µM; in assay [5], 6.22 µM; in assay [6], 21 µM. Further, the TGI in assay [7] turned out to be 22.3 µM; in assay [8], 12.4 µM; in assay [9], 38.5 µM; in [10], 8.95 µM.

Consider `O=c1cc(NNc2cccc3ccccc23)[nH]c(=O)[nH]1`, for which the TGI is 31.7 µM in assay [1]; 40.9 µM in [2]; 29.4 µM in [3]; 31.9 µM in [4]; 24.8 µM in assay [5]; 33.3 µM in assay [6]. Moreover, the TGI in [7] was 30.3 µM; in assay [8] it was 24.4 µM; in assay [9], 33.8 µM; in assay [10] it was 29.7 µM.

With `CC(C)=CCC[C@@H](C)C1=C(O)C(N[C@H](C)c2ccccc2)=C(C)C(=O)C1=O`, the TGI is 35.6 µM in assay [1]; 4.23 µM in assay [2]; 53.4 µM in [3]; 14.1 µM in assay [4]; over 63.2 µM in assay [5]; over 46.7 µM in assay [6]. In addition, the TGI came out at 17.1 µM in [7], 44.2 µM in assay [8], 26.3 µM in [9] and 13.1 µM in assay [10].

Take `NC1=Nc2cc(C(F)(F)F)ccc2Sc2nc3ccccc3n21`: the TGI is 80.4 µM in [1]; over 100 µM in [2]; over 100 µM in [3]; over 100 µM in [4]; over 100 µM in [5]; over 100 µM in assay [6]. Moreover, the TGI in assay [7], in [8], in assay [9] and in assay [10] was over 100 µM throughout.

`COCN1C(=O)[C@@H]2CCCN2C(=O)c2ccc(N)cc21`: the TGI in [1], in assay [2], in [3], in [4], in assay [5] and in [6] was over 100 µM each time. In addition, the TGI in assay [7], in assay [8], in assay [9] and in assay [10] was over 100 µM in each case.

As for `CC(=O)c1csc2c1C(=O)c1ccccc1C2=O`, the TGI in [1] came out at 89.1 µM; in [2] it was 16.6 µM; in assay [3] it was 2.92 µM; in assay [4], 4.5 µM; in assay [5], 10.3 µM; in assay [6], 5.07 µM. Also, the TGI stood at 4.57 µM in assay [7], 4.21 µM in assay [8], 4.99 µM in assay [9] and 0.376 µM in [10].

(Values after PubChem BioAssay (NCI).)
